Patent publication US9708267B2, “Activators of human pyruvate kinase” (The United States of America, as represented by the …, priority 2010, dated 2017)
Read-outs that look alike come from different tables or passages of the source.

Tests used:
Type in all cases: biochemical
PKR = PKR (Homo sapiens, UniProt P30613); test: luminescent pyruvate kinase-luciferase coupled assay, PKR isoform; conditions: same assay system as for PKM2
Experimental: (§1) Production of a luminescent signal based on the generation of ATP by pyruvate kinase was determined by using the ATP-dependent enzyme firefly luciferase. Three μL of substrate mix (at r.t.) in assay buffer (50 mM imidazole pH 7.2, 50 mM KCl, 7 mM MgCl2, 0.01% tween 20, 0.05% BSA) was dispensed into Kalypsys (San Diego, Calif., USA) white solid bottom 1,536 well microtiter plates using a bottle-valve solenoid-based dispenser (Kalypsys). The final concentrations of substrates in the assay were 0.1 mM ADP and 0.5 mM PEP. Twenty-three nL of compound in DMSO were delivered with a 1,536-pin array tool, and 1 μL of enzyme mix in assay buffer (final concentration, 0.1 nM pyruvate kinase, 50 mM imidazole pH 7.2, 0.05% BSA, 4° C.) was added. Microtiter plates were incubated at r.t. for 1 hour and 2 uL of luciferase detection mix (Kinase-Glo from Promega, Madison, Wis., USA) at 4° C. protected from light, was added and luminescence was read with a ViewLux (Perkin Elmer, Waltham, Mass., USA) using a 2 second exposure/plate (with 2× binning). The final concentration of DMSO was 0.5% and found not to affect the assay signal.
(§2) The same assay system was utilized to examine the activity of compound 4 and all related analogs versus PKL, PKM1 and PKR pyruvate kinase isoforms. No activity for any of the compounds were found against PKL, PKM1, or PKR.

PKM1 = PKM1 (Homo sapiens, UniProt P14618); test: luminescent pyruvate kinase-luciferase coupled assay, PKM1 isoform; conditions: same assay system as for PKM2
Sequence of PKM1 (P14618 1-531 isoform P14618-2): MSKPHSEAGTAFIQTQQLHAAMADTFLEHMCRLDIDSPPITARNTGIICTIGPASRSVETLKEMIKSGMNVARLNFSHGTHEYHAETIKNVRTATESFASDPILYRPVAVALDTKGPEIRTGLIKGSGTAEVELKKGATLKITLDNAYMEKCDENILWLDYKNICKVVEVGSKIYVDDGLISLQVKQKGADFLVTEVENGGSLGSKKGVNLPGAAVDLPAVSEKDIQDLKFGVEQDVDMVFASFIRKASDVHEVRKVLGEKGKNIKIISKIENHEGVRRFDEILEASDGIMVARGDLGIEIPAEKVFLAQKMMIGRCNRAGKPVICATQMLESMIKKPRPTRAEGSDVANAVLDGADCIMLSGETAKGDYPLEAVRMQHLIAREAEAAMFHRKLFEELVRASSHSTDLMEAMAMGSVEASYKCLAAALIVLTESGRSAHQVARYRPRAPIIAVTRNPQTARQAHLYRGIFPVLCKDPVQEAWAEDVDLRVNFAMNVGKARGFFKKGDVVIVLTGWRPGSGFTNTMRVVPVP
Experimental: as §1, §2

hPK, M2 = hPK, M2 (Homo sapiens, UniProt P14618); test: luminescent pyruvate kinase-luciferase coupled assay (qHTS); conditions: for AC50: 0.1 mM ADP, 0.5 mM PEP; for activation at 57 µM / hPK, M2 Max. Res.: % activation at 57 μM of compound; for activation at 57 µM: read-out: hPK, M2 Max. Res.; for Emax: maximum response (activation), read-out: Max. Res.
Sequence of hPK, M2 (P14618 whole entry): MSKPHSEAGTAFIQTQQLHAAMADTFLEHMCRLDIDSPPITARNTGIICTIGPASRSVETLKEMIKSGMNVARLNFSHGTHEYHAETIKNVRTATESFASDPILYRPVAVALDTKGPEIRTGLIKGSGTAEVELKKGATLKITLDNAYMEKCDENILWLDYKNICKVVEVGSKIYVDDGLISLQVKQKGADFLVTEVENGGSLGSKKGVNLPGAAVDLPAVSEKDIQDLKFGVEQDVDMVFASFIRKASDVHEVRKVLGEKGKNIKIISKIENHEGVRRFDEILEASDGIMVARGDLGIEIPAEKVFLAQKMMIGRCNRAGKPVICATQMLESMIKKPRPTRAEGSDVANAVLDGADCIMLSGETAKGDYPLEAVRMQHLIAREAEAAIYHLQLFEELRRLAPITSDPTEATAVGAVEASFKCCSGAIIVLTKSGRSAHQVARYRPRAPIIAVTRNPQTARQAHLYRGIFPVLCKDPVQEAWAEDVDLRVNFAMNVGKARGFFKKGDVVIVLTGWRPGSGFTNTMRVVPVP
Experimental: AC50 values were determined utilizing the luminescent pyruvate kinase-luciferase coupled assay (Inglese, J. et al, Quantitative high-throughput screening: a titration-based approach that efficiently identifies biological activities in large chemical libraries. Proc. Natl. Acad. Sci. U.S.A. 2006, 103, 11473-11478).
Luminescent Pyruvate Kinase-Luciferase Coupled Assay.
as §1
Data was normalized for AC50 values to control columns containing uninhibited enzyme (n), and AC100 inhibition (i) according the following equation: Activation (%)=[(c−n)/(n−i)]*100 where c=compound, n=DMSO neutral, i=no enzyme control. A % activity of 100% is approximately a 2-fold increase over basal assay signal (% Activation by FBP was variable but averaged 100%). Monitoring of activation was accomplished using enzyme at 3× the final concentration.
All compounds were screened using a qHTS approach, where compounds are assayed using at least seven concentrations to generate concentration-response curves for every compounds. Briefly, qHTS uses an inter-plate dilution method where the first plate contains the highest concentration of a set of compounds in DMSO, while subsequent plates contain the same compounds in the same well locations, but at successive lower concentrations. Using the protocol outlined above, the rate was calculated as a plate throughput of 18 plates/hr or approximately 7 samples/sec on the Kalypsys robotic system which means that a 7 point CRC was obtained every second on the robotic system.

PKL = PKL (Homo sapiens, UniProt P30613); test: luminescent pyruvate kinase-luciferase coupled assay, PKL isoform; conditions: same assay system as for PKM2
Sequence of PKL (P30613 1-543 isoform P30613-2): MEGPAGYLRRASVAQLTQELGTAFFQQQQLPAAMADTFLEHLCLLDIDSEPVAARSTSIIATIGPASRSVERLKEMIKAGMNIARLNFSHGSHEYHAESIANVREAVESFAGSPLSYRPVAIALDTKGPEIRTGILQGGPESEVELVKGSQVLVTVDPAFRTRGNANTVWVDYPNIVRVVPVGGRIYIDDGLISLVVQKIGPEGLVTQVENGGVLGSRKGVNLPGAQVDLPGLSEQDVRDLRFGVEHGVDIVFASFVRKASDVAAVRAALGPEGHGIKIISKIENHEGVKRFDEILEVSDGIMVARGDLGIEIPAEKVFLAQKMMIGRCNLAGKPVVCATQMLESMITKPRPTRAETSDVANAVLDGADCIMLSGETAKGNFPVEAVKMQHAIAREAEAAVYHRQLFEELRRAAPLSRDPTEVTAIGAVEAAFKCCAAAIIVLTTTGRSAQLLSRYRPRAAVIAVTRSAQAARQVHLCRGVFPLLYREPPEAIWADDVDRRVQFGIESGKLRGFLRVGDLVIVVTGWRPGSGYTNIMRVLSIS
Experimental: as §1, §2

[1] = Table 1, mean of three replicate experiments, read-out: hPK, M2 AC50
[2] = Table 1, mean of three replicate experiments
[3] = Table 2, mean of three replicate experiments
[4] = Table 3, mean of three replicate experiments
[5] = Table 2, mean of three replicate experiments, read-out: hPK, M2 AC50

Sequence of PKR (P30613 whole entry, canonical isoform): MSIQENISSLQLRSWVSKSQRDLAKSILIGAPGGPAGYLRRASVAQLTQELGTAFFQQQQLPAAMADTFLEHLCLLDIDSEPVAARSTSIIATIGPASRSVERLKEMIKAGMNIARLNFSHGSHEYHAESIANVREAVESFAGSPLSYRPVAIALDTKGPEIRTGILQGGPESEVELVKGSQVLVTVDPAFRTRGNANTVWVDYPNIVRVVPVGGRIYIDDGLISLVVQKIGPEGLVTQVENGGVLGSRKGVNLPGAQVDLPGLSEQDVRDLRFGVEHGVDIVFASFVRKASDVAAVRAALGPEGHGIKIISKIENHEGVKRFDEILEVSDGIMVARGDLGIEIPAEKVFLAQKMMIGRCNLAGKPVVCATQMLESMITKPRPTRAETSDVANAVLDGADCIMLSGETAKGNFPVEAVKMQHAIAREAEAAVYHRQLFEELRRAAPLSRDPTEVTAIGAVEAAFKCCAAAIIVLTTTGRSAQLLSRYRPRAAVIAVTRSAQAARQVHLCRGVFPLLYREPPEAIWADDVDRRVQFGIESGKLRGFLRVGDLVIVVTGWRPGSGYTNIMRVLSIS

Cc1ccc(NS(=O)(=O)c2ccc3c(c2)CCC(=O)N3)cc1C [Compound 4, N-(3,4-dimethylphenyl)-2-oxo-1,2,3,4-tetrahydroquinoline-6-sulfonamide]
activity against PKR (PKR): No activity
activity against PKM1 (PKM1): No activity
AC50 (hPK, M2; [1]): 650 nM
activation at 57 µM (hPK, M2; [2]): 104%
hPK, M2 Max. Res. (hPK, M2; [3]): 104%
hPK, M2 Max. Res. (hPK, M2; [4]): 104%
activity against PKL (PKL): No activity

Cc1c(Cl)cccc1NS(=O)(=O)c1cc2c(cc1F)NC(=O)CC2 [Compound 50, N-(3-chloro-2-methylphenyl)-7-fluoro-2-oxo-1,2,3,4-tetrahydroquinoline-6-sulfonamide]
AC50 (hPK, M2; Table 4, read-out: AC50): 2590 nM
Emax (hPK, M2; Table 4): 118%

O=C1CCc2cc(S(=O)(=O)Nc3ccc(F)cc3)ccc2N1 [Compound 23, N-(4-fluorophenyl)-2-oxo-1,2,3,4-tetrahydroquinoline-6-sulfonamide]
AC50 (hPK, M2; [5]): 10000 nM
activation at 57 µM (hPK, M2; [3]): 99%

Cc1c(Cl)cccc1NS(=O)(=O)c1cc2c(cc1Cl)CCC(=O)N2 [Compound 59, 6-chloro-N-(3-chloro-2-methylphenyl)-2-oxo-1,2,3,4-tetrahydroquinoline-7-sulfonamide]
AC50 (hPK, M2; Table 4, read-out: AC50): 1160 nM
Emax (hPK, M2; Table 4): 109%

Cc1ccc(NS(=O)(=O)c2ccc3c(c2)N(C)C(=O)CO3)cc1C [Compound 8, N-(3,4-dimethylphenyl)-4-methyl-3-oxo-3,4-dihydro-2H-benzo[b][1,4]oxazine-6-sulfonamide]
AC50 (hPK, M2; [1]): 920 nM
activation at 57 µM (hPK, M2; [2]): 120%

Cc1ccc(NS(=O)(=O)c2ccc3c(ccn3C)c2)cc1C [Compound 12, N-(3,4-dimethylphenyl)-1-methyl-1H-indole-5-sulfonamide]
AC50 (hPK, M2; [1]): 20000 nM
activation at 57 µM (hPK, M2; [2]): 40%

Cc1ccc(NS(=O)(=O)c2cc3c(cc2N2CCCC2)NC(=O)CC3)cc1C [Compound 62, N-(3,4-dimethylphenyl)-2-oxo-7-(pyrrolidin-1-yl)-1,2,3,4-tetrahydroquinoline-6-sulfonamide]
AC50 (hPK, M2; Table 4, read-out: AC50): 460 nM
Emax (hPK, M2; Table 4): 124%

Cc1ccc(NS(=O)(=O)c2cc3c(cc2N[C@H](C)CO)NC(=O)CC3)cc1C [Compound 69, (R)—N-(3,4-dimethylphenyl)-7-(1-hydroxypropan-2-ylamino)-2-oxo-1,2,3,4-tetrahydroquinoline-6-sulfonamide]
AC50 (hPK, M2; Table 4, read-out: AC50): 370 nM
Emax (hPK, M2; Table 4): 87.7%

Cc1ccc(NS(=O)(=O)c2cc3c(cc2N2CCCCC2)NC(=O)CC3)cc1C [Compound 34, N-(3,4-dimethylphenyl)-2-oxo-7-(piperidin-1-yl)-1,2,3,4-tetrahydroquinoline-6-sulfonamide]
AC50 (hPK, M2; Table 3, mean of three replicate experiments, read-out: hPK, M2 AC50): 15000 nM
activation at 57 µM (hPK, M2; [4]): 57%

CC(=O)N1c2ccc(S(=O)(=O)Nc3ccc(C)c(C)c3)cc2CC1C (stereo not drawn) [Compound 47, 1-acetyl-N-(3,4-dimethylphenyl)-2-methylindoline-5-sulfonamide]
AC50 (hPK, M2; Table 4, read-out: AC50): 18300 nM
Emax (hPK, M2; Table 4): 112%

O=C1CCc2cc(S(=O)(=O)Nc3cccc(F)c3)ccc2N1 [Compound 16, N-(3-fluorophenyl)-2-oxo-1,2,3,4-tetrahydroquinoline-6-sulfonamide]
AC50 (hPK, M2; [5]): 1800 nM
activation at 57 µM (hPK, M2; [3]): 93%
